Source: BindingDB's records for doi:10.1016/0960-894X(95)00537-3 (1995)

What follows are molecules tested against Gastrin/cholecystokinin type B receptor (Cavia porcellus) (assay: Inhibitory activity towards binding of [125I]Bolton-Hunter-CCK-8 to CCKB receptor in guinea pig cortical tissue).

| SMILES | IC50 [nM] |
| --- | --- |
| Cc1cccc(NC(=O)N[C@H](CCC(=O)OCc2ccccc2)C(=O)N2CCN(C(=O)c3ccccc3)CC2)c1 | > 10000 |
| Cc1cccc(NC(=O)N[C@H](CCc2ccccc2)C(=O)N2CCC(C(=O)c3ccccc3)CC2)c1 [1-[(R)-1-(4-Benzoyl-piperidine-1-carbonyl)-3-phenyl-propyl]-3-m-tolyl-urea] | 3900 |
| CCCC[C@@H](NC(=O)Nc1cccc(C)c1)C(=O)N1CCC(C(=O)c2ccccc2)CC1 [1-[(R)-1-(4-Benzoyl-piperidine-1-carbonyl)-pentyl]-3-m-tolyl-urea] | 4800 |
| Cc1cccc(NC(=O)N[C@H](COCc2ccccc2)C(=O)N2CCC(Cc3ccccc3)CC2)c1 [1-[(R)-1-Benzyloxymethyl-2-(4-benzyl-piperidin-1-yl)-2-oxo-ethyl]-3-m-tolyl-urea] | > 5900 |
| CC(=O)C1CCN(C(=O)[C@@H](COCc2ccccc2)NC(=O)Nc2cccc(C)c2)CC1 [1-[(R)-2-(4-Acetyl-piperidin-1-yl)-1-benzyloxymethyl-2-oxo-ethyl]-3-m-tolyl-urea] | > 6900 |
| Cc1cccc(NC(=O)N[C@H](COCc2ccccc2)C(=O)N2CCC(C(=O)c3ccccc3)CC2)c1 [1-[(R)-2-(4-Benzoyl-piperidin-1-yl)-1-benzyloxymethyl-2-oxo-ethyl]-3-m-tolyl-urea] | 300 |
| Cc1cccc(NC(=O)N[C@H](COCc2ccccc2)C(=O)N2CCC(C(=O)Nc3ccccc3)CC2)c1 [1-[(R)-3-Benzyloxy-2-(3-m-tolyl-ureido)-propionyl]-piperidine-4-carboxylic acid phenylamide] | 160 |
| Cc1cccc(NC(=O)N[C@H](CS(=O)(=O)Cc2ccccc2)C(=O)N2CCC(C(=O)c3ccccc3)CC2)c1 [1-[(S)-2-(4-Benzoyl-piperidin-1-yl)-2-oxo-1-phenylmethanesulfonylmethyl-ethyl]-3-m-tolyl-urea] | 810 |
| Cc1cccc(NC(=O)N[C@H](COCc2ccccc2)C(=O)N2CCC(C(=O)c3ccc(F)cc3)CC2)c1 [1-{1-((R)-Benzyloxymethyl)-2-[4-(4-fluoro-benzoyl)-piperidin-1-yl]-2-oxo-ethyl}-3-m-tolyl-urea] | 230 |
| Cc1cccc(NC(=O)N[C@H](CCCc2ccccc2)C(=O)N2CCC(C(=O)c3ccccc3)CC2)c1 [1-{1-[(R)-(4-Benzoyl-piperidin-1-yl)-oxo-methyl]-4-phenyl-butyl}-3-m-tolyl-urea] | 1100 |
| Cc1cccc(NC(=O)N[C@@H](C(=O)N2CCC(C(=O)c3ccccc3)CC2)[C@@H](C)OCc2ccccc2)c1 [1-{(R)-1-[(R)-(4-Benzoyl-piperidin-1-yl)-oxo-methyl]-2-benzyloxy-propyl}-3-m-tolyl-urea] | 440 |
| Cc1cccc(NC(=O)N[C@H](CCC(=O)OCc2ccccc2)C(=O)N2CCC(NC(=O)c3ccccc3)CC2)c1 [5-(4-Benzoylamino-piperidin-1-yl)-5-(R)-oxo-4-(3-m-tolyl-ureido)-pentanoic acid benzyl ester] | > 10000 |
| Cc1cccc(NC(=O)N[C@H](CCC(=O)OCc2ccccc2)C(=O)N2CCC(C(=O)Nc3ccccc3)CC2)c1 [5-(R)-Oxo-5-(4-phenylcarbamoyl-piperidin-1-yl)-4-(3-m-tolyl-ureido)-pentanoic acid benzyl ester] | 2000 |
| Cc1cccc(NC(=O)N[C@H](COC(=O)N(C)C)C(=O)N2CCC(C(=O)c3ccccc3)CC2)c1 [Dimethyl-carbamic acid (R)-3-(4-benzoyl-piperidin-1-yl)-3-oxo-2-(3-m-tolyl-ureido)-propyl ester] | 1500 |
| Cc1cccc(NC(=O)N[C@H](COC(=O)N2CCOCC2)C(=O)N2CCC(C(=O)c3ccccc3)CC2)c1 [Morpholine-4-carboxylic acid (R)-3-(4-benzoyl-piperidin-1-yl)-3-oxo-2-(3-m-tolyl-ureido)-propyl ester] | 180 |
| Cc1cccc(NC(=O)N[C@H](COC(=O)Nc2ccccc2)C(=O)N2CCC(C(=O)c3ccccc3)CC2)c1 [Phenyl-carbamic acid (R)-3-(4-benzoyl-piperidin-1-yl)-3-oxo-2-(3-m-tolyl-ureido)-propyl ester] | 120 |
| Cc1cccc(NC(=O)N[C@H](COC(=O)N2CCCC2)C(=O)N2CCC(C(=O)c3ccccc3)CC2)c1 [Pyrrolidine-1-carboxylic acid (R)-3-(4-benzoyl-piperidin-1-yl)-3-oxo-2-(3-m-tolyl-ureido)-propyl ester] | 100 |
| Cc1cccc(NC(=O)N[C@H](COC(=O)N2CCCC2)C(=O)N2CCC(C(=O)Nc3ccccc3)CC2)c1 [Pyrrolidine-1-carboxylic acid (R)-3-oxo-3-(4-phenylcarbamoyl-piperidin-1-yl)-2-(3-m-tolyl-ureido)-propyl ester] | 34 |
| CC(Cc1c[nH]c2ccccc12)(NC(=O)OC1[C@H]2C[C@@H]3C[C@@H](C[C@H]1C3)C2)C(=O)N1CCC(C(=O)c2ccccc2)CC1 (some centres not stated) [[2-(4-Benzoyl-piperidin-1-yl)-1-(1H-indol-3-ylmethyl)-1-methyl-2-oxo-ethyl]-carbamic acid adamantan-2-yl ester] | 3400 |
| CC(C)C[C@H](NC(=O)[C@H](Cc1c[nH]c2ccccc12)NC(=O)OC(C)(C)C)C(=O)N1CCC(C(=O)c2ccccc2)CC1 [[(S)-1-[(S)-1-(4-Benzoyl-piperidine-1-carbonyl)-3-methyl-butylcarbamoyl]-2-(1H-indol-3-yl)-ethyl]-carbamic acid tert-butyl ester] | 912 |
| CC(C)C[C@H](NC(=O)[C@H](Cc1c[nH]c2ccccc12)NC(=O)OC(C)(C)C)C(=O)N1CCC(Cc2ccccc2)CC1 [[(S)-1-[(S)-1-(4-Benzyl-piperidine-1-carbonyl)-3-methyl-butylcarbamoyl]-2-(1H-indol-3-yl)-ethyl]-carbamic acid tert-butyl ester] | > 10000 |
| CC(C)(C)OC(=O)N[C@@H](Cc1c[nH]c2ccccc12)C(=O)N1CCC(C(=O)c2ccccc2)CC1 [[(S)-2-(4-Benzoyl-piperidin-1-yl)-1-(1H-indol-3-ylmethyl)-2-oxo-ethyl]-carbamic acid tert-butyl ester] | > 10000 |
